The supplement of paper PMC10307832

Key:
Experiment in all cases: relative viability (nuclei count vs DMSO), 5 days (fraction); higher = more cells survive
HCC-15 = system: HCC-15
Method in brief: (§1)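 After 5 days of treatment, lung cancer cells in 1536-well plates were fixed and stained in a single step (final 0.05% Triton X-100, 1% formaldehyde, 1 ug/ml Hoechst) and their nuclei counted on 4× images. Treatment had been applied by pin tool the day after seeding as one drug alone or as a fixed anchor-drug dose with five library-drug doses (not always all listed) in √10 steps. Relative viability is the nuclei count of treated wells divided by that of vehicle wells, and values are medians of duplicate plates.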

NCI-H727 = system: NCI-H727
Method in brief: as §1

NCI-H322M = system: NCI-H322M
Method in brief: as §1

NCI-H838 = system: NCI-H838
Method in brief: as §1

NCI-H460 = system: NCI-H460
Method in brief: as §1

BEN = system: BEN
Method in brief: as §1

NCI-H1651 = system: NCI-H1651
Method in brief: as §1

NCI-H358 = system: NCI-H358
Method in brief: as §1

EMC-BAC-2 = system: EMC-BAC-2
Method in brief: as §1

CAL-12T = system: CAL-12T
Method in brief: as §1

LK-2 = system: LK-2
Method in brief: as §1

NCI-H522 = system: NCI-H522
Method in brief: as §1

SW 900 = system: SW 900
Method in brief: as §1

NCI-H2023 = system: NCI-H2023
Method in brief: as §1

PC-3 [JPC-3] = system: PC-3 [JPC-3]
Method in brief: as §1

ABC-1 = system: ABC-1
Method in brief: as §1

COR-L 105 = system: COR-L 105
Method in brief: as §1

EKVX = system: EKVX
Method in brief: as §1

LU99A = system: LU99A
Method in brief: as §1

HCC-44 = system: HCC-44
Method in brief: as §1

NCI-H520 = system: NCI-H520
Method in brief: as §1

201T = system: 201T
Method in brief: as §1

How did the relative viability (HCC-15; first compound 0.001 µM) turn out when `Cc1cn(-c2cc(NC(=O)c3ccc(C)c(Nc4nccc(-c5cccnc5)n4)c3)cc(C(F)(F)F)c2)cn1` [Nilotinib] + Cc1cc(Nc2cc(N3CCN(C)CC3)nc(Sc3ccc(NC(=O)C4CC4)cc3)n2)n[nH]1 [Tozasertib] (partner 0.1 µM) was run?
The relative viability was 0.236.

And the relative viability (HCC-15; first compound 0.003162 µM)?
The relative viability was 0.312.

What about the relative viability (HCC-15; first compound 0.01 µM) of the same molecule?
The relative viability was 0.217.

What about the relative viability (HCC-15; first compound 0.03162 µM) of the same molecule?
The relative viability was 0.165.

And the relative viability (HCC-15; first compound 0.1 µM)?
Its relative viability is 0.136.

And the relative viability (NCI-H727; first compound 0.001 µM)?
The relative viability was 0.599.

And the relative viability (NCI-H727; first compound 0.003162 µM)?
The relative viability was 0.624.

What about the relative viability (NCI-H727; first compound 0.01 µM) of the same molecule?
The relative viability was 0.503.

What about the relative viability (NCI-H727; first compound 0.03162 µM) of the same molecule?
Its relative viability is 0.437.

And the relative viability (NCI-H727; first compound 0.1 µM)?
Its relative viability is 0.599.

And the relative viability (NCI-H322M; first compound 0.001 µM)?
The relative viability was 0.471.

What about the relative viability (NCI-H322M; first compound 0.003162 µM) of the same molecule?
The relative viability was 0.427.

What about the relative viability (NCI-H322M; first compound 0.01 µM) of the same molecule?
The relative viability was 0.492.

And the relative viability (NCI-H322M; first compound 0.03162 µM)?
Its relative viability is 0.456.

And the relative viability (NCI-H322M; first compound 0.1 µM)?
Its relative viability is 0.548.

And the relative viability (NCI-H838; first compound 0.001 µM)?
Its relative viability is 0.219.

And the relative viability (NCI-H838; first compound 0.003162 µM)?
The relative viability was 0.298.

And the relative viability (NCI-H838; first compound 0.01 µM)?
Its relative viability is 0.294.

What about the relative viability (NCI-H838; first compound 0.03162 µM) of the same molecule?
The relative viability was 0.228.

And the relative viability (NCI-H838; first compound 0.1 µM)?
The relative viability was 0.221.

What about the relative viability (NCI-H460; first compound 0.001 µM) of the same molecule?
The relative viability was 0.152.

What about the relative viability (NCI-H460; first compound 0.03162 µM) of the same molecule?
Its relative viability is 0.1.

And the relative viability (NCI-H460; first compound 0.1 µM)?
The relative viability was 0.0459.

And the relative viability (BEN; first compound 0.001 µM)?
The relative viability was 0.498.

And the relative viability (BEN; first compound 0.003162 µM)?
The relative viability was 0.494.

What about the relative viability (BEN; first compound 0.01 µM) of the same molecule?
Its relative viability is 0.456.

What about the relative viability (BEN; first compound 0.03162 µM) of the same molecule?
The relative viability was 0.408.

What about the relative viability (BEN; first compound 0.1 µM) of the same molecule?
The relative viability was 0.509.

And the relative viability (NCI-H1651; first compound 0.001 µM)?
Its relative viability is 0.458.

And the relative viability (NCI-H1651; first compound 0.003162 µM)?
The relative viability was 0.584.

And the relative viability (NCI-H1651; first compound 0.01 µM)?
Its relative viability is 0.405.

And the relative viability (NCI-H1651; first compound 0.03162 µM)?
The relative viability was 0.249.

What about the relative viability (NCI-H1651; first compound 0.1 µM) of the same molecule?
The relative viability was 0.275.

And the relative viability (NCI-H358; first compound 0.001 µM)?
Its relative viability is 0.0908.

What about the relative viability (NCI-H358; first compound 0.003162 µM) of the same molecule?
Its relative viability is 0.0985.

What about the relative viability (NCI-H358; first compound 0.01 µM) of the same molecule?
Its relative viability is 0.0881.

And the relative viability (NCI-H358; first compound 0.03162 µM)?
The relative viability was 0.101.

And the relative viability (NCI-H358; first compound 0.1 µM)?
Its relative viability is 0.116.

And the relative viability (EMC-BAC-2; first compound 0.001 µM)?
Its relative viability is 0.259.

What about the relative viability (EMC-BAC-2; first compound 0.003162 µM) of the same molecule?
Its relative viability is 0.258.

What about the relative viability (EMC-BAC-2; first compound 0.01 µM) of the same molecule?
The relative viability was 0.244.

What about the relative viability (EMC-BAC-2; first compound 0.03162 µM) of the same molecule?
The relative viability was 0.269.

And the relative viability (CAL-12T; first compound 0.001 µM)?
The relative viability was 0.197.

And the relative viability (CAL-12T; first compound 0.003162 µM)?
The relative viability was 0.217.

What about the relative viability (CAL-12T; first compound 0.01 µM) of the same molecule?
The relative viability was 0.219.

And the relative viability (CAL-12T; first compound 0.03162 µM)?
The relative viability was 0.172.

And the relative viability (CAL-12T; first compound 0.1 µM)?
The relative viability was 0.211.

What about the relative viability (LK-2; first compound 0.001 µM) of the same molecule?
Its relative viability is 0.181.

And the relative viability (LK-2; first compound 0.003162 µM)?
The relative viability was 0.163.

And the relative viability (LK-2; first compound 0.01 µM)?
Its relative viability is 0.155.

What about the relative viability (LK-2; first compound 0.03162 µM) of the same molecule?
The relative viability was 0.175.

What about the relative viability (NCI-H522; first compound 0.001 µM) of the same molecule?
The relative viability was 0.484.

What about the relative viability (NCI-H522; first compound 0.003162 µM) of the same molecule?
The relative viability was 0.605.

And the relative viability (NCI-H522; first compound 0.01 µM)?
Its relative viability is 0.521.

What about the relative viability (NCI-H522; first compound 0.03162 µM) of the same molecule?
The relative viability was 0.558.

What about the relative viability (NCI-H522; first compound 0.1 µM) of the same molecule?
The relative viability was 0.619.

And the relative viability (SW 900; first compound 0.001 µM)?
Its relative viability is 0.324.

And the relative viability (SW 900; first compound 0.003162 µM)?
The relative viability was 0.51.

And the relative viability (SW 900; first compound 0.01 µM)?
The relative viability was 0.389.

What about the relative viability (SW 900; first compound 0.03162 µM) of the same molecule?
The relative viability was 0.34.

And the relative viability (SW 900; first compound 0.1 µM)?
The relative viability was 0.262.

And the relative viability (NCI-H2023; first compound 0.001 µM)?
Its relative viability is 0.192.

What about the relative viability (NCI-H2023; first compound 0.003162 µM) of the same molecule?
Its relative viability is 0.225.

And the relative viability (NCI-H2023; first compound 0.01 µM)?
The relative viability was 0.224.

And the relative viability (NCI-H2023; first compound 0.03162 µM)?
Its relative viability is 0.159.

What about the relative viability (NCI-H2023; first compound 0.1 µM) of the same molecule?
The relative viability was 0.183.

What about the relative viability (PC-3 [JPC-3]; first compound 0.001 µM) of the same molecule?
The relative viability was 0.736.

And the relative viability (PC-3 [JPC-3]; first compound 0.003162 µM)?
Its relative viability is 0.932.

What about the relative viability (PC-3 [JPC-3]; first compound 0.01 µM) of the same molecule?
The relative viability was 0.91.

And the relative viability (PC-3 [JPC-3]; first compound 0.03162 µM)?
The relative viability was 0.621.

What about the relative viability (PC-3 [JPC-3]; first compound 0.1 µM) of the same molecule?
The relative viability was 0.426.

What about the relative viability (ABC-1; first compound 0.001 µM) of the same molecule?
Its relative viability is 0.175.

What about the relative viability (ABC-1; first compound 0.003162 µM) of the same molecule?
The relative viability was 0.176.

And the relative viability (ABC-1; first compound 0.01 µM)?
The relative viability was 0.168.

And the relative viability (ABC-1; first compound 0.03162 µM)?
The relative viability was 0.232.

And the relative viability (ABC-1; first compound 0.1 µM)?
The relative viability was 0.237.

And the relative viability (COR-L 105; first compound 0.001 µM)?
Its relative viability is 0.361.

What about the relative viability (COR-L 105; first compound 0.003162 µM) of the same molecule?
Its relative viability is 0.329.

And the relative viability (COR-L 105; first compound 0.01 µM)?
The relative viability was 0.497.

What about the relative viability (COR-L 105; first compound 0.03162 µM) of the same molecule?
The relative viability was 0.329.

And the relative viability (COR-L 105; first compound 0.1 µM)?
The relative viability was 0.317.

What about the relative viability (EKVX; first compound 0.001 µM) of the same molecule?
Its relative viability is 0.368.

What about the relative viability (EKVX; first compound 0.003162 µM) of the same molecule?
Its relative viability is 0.341.

What about the relative viability (EKVX; first compound 0.01 µM) of the same molecule?
Its relative viability is 0.35.

And the relative viability (EKVX; first compound 0.03162 µM)?
Its relative viability is 0.252.

And the relative viability (EKVX; first compound 0.1 µM)?
The relative viability was 0.261.

What about the relative viability (LU99A; first compound 0.001 µM) of the same molecule?
The relative viability was 0.232.

And the relative viability (LU99A; first compound 0.003162 µM)?
Its relative viability is 0.268.

What about the relative viability (LU99A; first compound 0.01 µM) of the same molecule?
Its relative viability is 0.211.

And the relative viability (LU99A; first compound 0.03162 µM)?
The relative viability was 0.256.

And the relative viability (LU99A; first compound 0.1 µM)?
The relative viability was 0.226.

And the relative viability (HCC-44; first compound 0.001 µM)?
Its relative viability is 0.615.

What about the relative viability (HCC-44; first compound 0.003162 µM) of the same molecule?
The relative viability was 0.842.

What about the relative viability (HCC-44; first compound 0.01 µM) of the same molecule?
Its relative viability is 0.948.

And the relative viability (HCC-44; first compound 0.03162 µM)?
Its relative viability is 0.621.

What about the relative viability (HCC-44; first compound 0.1 µM) of the same molecule?
Its relative viability is 0.487.

What about the relative viability (NCI-H520; first compound 0.001 µM) of the same molecule?
Its relative viability is 0.486.

And the relative viability (NCI-H520; first compound 0.003162 µM)?
The relative viability was 0.46.

And the relative viability (NCI-H520; first compound 0.01 µM)?
Its relative viability is 0.428.

What about the relative viability (NCI-H520; first compound 0.03162 µM) of the same molecule?
Its relative viability is 0.462.

And the relative viability (NCI-H520; first compound 0.1 µM)?
Its relative viability is 0.386.

And the relative viability (201T; first compound 0.003162 µM)?
Its relative viability is 1.18.

And the relative viability (201T; first compound 0.01 µM)?
Its relative viability is 0.976.

And the relative viability (201T; first compound 0.03162 µM)?
Its relative viability is 0.691.

What about the relative viability (201T; first compound 0.1 µM) of the same molecule?
The relative viability was 0.634.
